The values below come from patent publication US11484529B2, “Desmethylanethole trithione derivatives for the treatment of diseases linked to mitochondrial reactive oxygen species (ROS) production” (OP2 Drugs, priority 2017, dated 2022).

Each structure is given as a SMILES string. Where two headings read alike, the source gives them in different places.

As usually defined, the IC50 is the midpoint of a concentration-inhibition curve. Broadly, the Hill coefficient is a measure of the steepness of the concentration-response curve.

One assay has as its system intrapulmonary arteries. Kind of assay: Isometric contraction of intrapulmonary arteries induced by serotonin or endothelin. The protocol: Intrapulmonary arteries of the first order (IPA1) were divided into short tubular segments with an external diameter of 1.5-2 mm and used for isometric contraction measurement. Arterial rings were mounted in isolated organ bath systems, containing Krebs solution (containing 118.4 mM NaCl, 4.7 mM KCl, 1.2 mM MgSO4, 25 mM NaHCO3, 1.2 mM KH2PO4, 2.5 mM CaCl2) and 11.1 mM D-glucose, pH 7.4 adjusted with NaOH) at 37° C. and bubbled continuously with […]. An initial load of 0.8 to 1 g was applied to arterial rings. Tissues were allowed to equilibrate for 1 hour in Kreb's solution and washed out every 15 minutes. A high KCl solution (80 mM) was applied in order to obtain a reference contraction used to normalize subsequent contractile responses.
Contractile responses to different agonists were then tested by constructing a cumulative concentration-response curve (CCRC) to serotonin (5HT, 10^−4 to 10^−[…]) or endothelin (ET-1, 10^−7 to 10^−10 M). When indicated, AOL or AOX were preincubated during 30 minutes, and then CCRC to agonist was performed in the presence of the drug. High potassium solutions were obtained by substituting an equimolar amount of KCl for NaCl from Kreb's solution. Endothelial function was tested on each ring by examining the relaxation induced by 10 μM carbamylcholine on 0.3 μM Phe-induced preconstricted pulmonary arterial rings. Passive and active mechanical properties were assessed using transducer systems, coupled to IOX software (EMKA Technologies, Paris, France) in order to facilitate data acquisition and analysis.

The next assay deals with site IQ of complex I (Rattus norvegicus, UniProt A6K8N6+P03889+Q641Y2). Kind of assay: Mitochondrial ROS/H2O2 production (Amplex Red/HRP), glutamate+malate+succinate with ATR, no inhibitor. The format is biochemical. Here is the method: Rates of ROS/H2O2 production from heart mitochondria were assessed through the oxidation of the colorless, non-fluorescent indicator Amplex Red in the presence of exogenous horseradish peroxidase (HRP, EC 1.11.1.7, Sigma). H2O2 reacts with Amplex Red in a 1:1 stoichiometry, yielding the fluorescent compound resorufin (excitation: 560 nm; emission: 585 nm) which is stable once formed. Fluorescence was measured continuously with a spectro-fluorometer equipped with temperature control and stirring (SAFAS Xenius, Monaco). Isolated mitochondria (0.1 mg/mL) were incubated in the same experimental buffer than previously, supplemented with 15 μM Amplex Red and 10 μg/mL HRP. Glutamate (5 mM)/malate (2.5 mM) together with succinate (5 mM) were used as complex I and complex II substrates, respectively. Experiments were conducted under non-phosphorylating conditions in the presence of 15 μM atractyloside, i.e., under state IV conditions where […]. Afterwards, rotenone (1.5 μM), antimycin A (2 μM), and myxothiazol (0.2 μM) were sequentially added to inhibit the redox centers within the electron transfer chain (FIG. 2), namely sites IQ, IF (with rotenone), IIIQi (with antimycin A) and IIIQO (with myxothiazol). Assay was finally calibrated with known amounts of H2O2 (steps of 300 nM), in the presence of all relevant compounds, including AOL. The control test of the absence of effect of AOL on the Amplex Red assay itself and NAD(P)H oxidase ROS/H2O2 production was carried out in the absence of cardiac mitochondria and the presence of NAD(P)H oxidase (EC 1.6.3.3, 5 mU/mL, Sigma) and NADH (100 μM) solutions.
Chain of site IQ of complex I (A6K8N6 entry or part of it): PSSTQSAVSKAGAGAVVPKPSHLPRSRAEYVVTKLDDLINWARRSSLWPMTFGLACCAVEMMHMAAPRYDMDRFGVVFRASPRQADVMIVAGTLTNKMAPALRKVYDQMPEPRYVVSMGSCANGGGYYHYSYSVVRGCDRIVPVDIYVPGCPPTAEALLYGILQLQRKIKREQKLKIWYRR
Chain of site IQ of complex I (P03889 whole entry): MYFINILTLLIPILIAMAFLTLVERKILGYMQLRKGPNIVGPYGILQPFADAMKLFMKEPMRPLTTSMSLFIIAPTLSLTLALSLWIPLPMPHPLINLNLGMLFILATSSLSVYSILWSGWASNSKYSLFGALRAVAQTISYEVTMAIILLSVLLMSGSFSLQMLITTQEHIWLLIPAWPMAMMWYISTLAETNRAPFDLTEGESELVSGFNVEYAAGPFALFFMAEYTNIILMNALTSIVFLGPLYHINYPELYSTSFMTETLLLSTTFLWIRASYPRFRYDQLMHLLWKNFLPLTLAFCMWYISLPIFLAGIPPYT
Chain of site IQ of complex I (Q641Y2 34-463): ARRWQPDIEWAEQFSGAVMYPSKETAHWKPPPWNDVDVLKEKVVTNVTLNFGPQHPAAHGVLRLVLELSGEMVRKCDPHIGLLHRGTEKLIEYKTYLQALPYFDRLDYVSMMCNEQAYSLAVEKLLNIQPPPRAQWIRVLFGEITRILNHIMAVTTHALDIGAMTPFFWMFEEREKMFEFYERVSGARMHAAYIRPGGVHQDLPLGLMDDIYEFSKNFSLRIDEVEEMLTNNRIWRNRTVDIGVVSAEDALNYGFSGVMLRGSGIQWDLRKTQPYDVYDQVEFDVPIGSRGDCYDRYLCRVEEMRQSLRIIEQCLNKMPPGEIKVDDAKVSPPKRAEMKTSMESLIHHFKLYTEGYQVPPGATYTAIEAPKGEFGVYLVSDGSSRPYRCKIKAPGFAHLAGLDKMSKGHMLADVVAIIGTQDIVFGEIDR
Rates of ROS/H2O2 production from heart mitochondria were assessed through the oxidation of the colorless, non-fluorescent indicator Amplex Red in the presence of exogenous horseradish peroxidase (HRP, EC 1.11.1.7, Sigma). H2O2 reacts with Amplex Red in a 1:1 stoichiometry, yielding the fluorescent compound resorufin (excitation: 560 nm; emission: 585 nm) which is stable once formed. Fluorescence was measured continuously with a spectro-fluorometer equipped with temperature control and stirring (SAFAS Xenius, Monaco).
Isolated mitochondria (0.1 mg/mL) were incubated in the same experimental buffer than previously, supplemented with 15 μM Amplex Red and 10 μg/mL HRP. Glutamate (5 mM)/malate (2.5 mM) together with succinate (5 mM) were used as complex I and complex II substrates, respectively. Experiments were conducted under non-phosphorylating conditions in the presence of 15 μM atractyloside. Afterwards, rotenone (1.5 μM), antimycin A (2 μM), and myxothiazol (0.2 μM) were sequentially added to inhibit the redox centers within the electron transfer chain (see FIG. 2), namely sites IQ, IF (with rotenone), IIIQi (with antimycin A) and IIIQO (with myxothiazol). Assay was finally calibrated with known amounts of H2O2 (steps of 300 nM), in the presence of all relevant compounds, including AOX. The control test of the absence of effect of AOL, AOX and Oltipraz on the Amplex Red assay itself and NAD(P)H oxidase […] production was carried out in the absence of cardiac mitochondria and the presence of NAD(P)H oxidase (EC 1.6.3.3, 5 mU/mL, Sigma) and NADH (100 μM) solutions.

Assay [1] relates to pulmonary arterial smooth muscle cells (PASMC). The assay can be described thus: PASMC proliferation (BrdU incorporation). The format is cell-based. Particulars: AOL 10, 20, 60 or 100 μM, 24 hours. Here is the method: Detection of pulmonary arterial smooth muscle cells (PASMC) proliferation was assayed by using a colorimetric immunoassay kit (Roche Applied Science, Indianapolis, Ind., USA) based on the measurement of 5-bromo-2′-deoxy-uridine (BrdU) incorporation during DNA synthesis.
Isolated PASMC were seeded in culture medium supplemented with 10% fetal calf serum (FCS) at a density of 5·10^3 cells/well/100 μL in a 96-well culture plate. The culture plate was placed in a humidified incubator at 37° C. under 5% CO2 in air. After 48 hours, cells were subjected to 48 hours of growth arrest in serum-free culture medium supplemented with 1% insulin-transferrin-selenium. At the end of this period, PASMC were incubated for 24 hours in culture medium containing either: • 0.2% FCS (control condition); • 0.2% FCS+10, 20, 60 or 100 μM AOL; • 0.2% FCS+100 μM 5HT (serotonin); • 0.2% FCS+100 μM 5HT+10, 20, 60 or 100 μM AOL; • 10% FCS; • 10% FCS+10, 20, 60 or 100 μM AOL.
Each condition was tested in triplicate. 10 μL of BrdU (100 μM) was then added to the media and cells were incubated for an additional 2 hours at 37° C. […] Newly synthesized BrdU DNA was determined by measuring absorbance of the samples in an ELISA reader (Spectrostar/nano; BMG Labtech, Champigny-sur-Marne, France) at a wavelength of 380 nm with a reference wavelength of 490 nm.
For orientation: Uptake of a labelled nucleoside into DNA is a usual measure of proliferation.

For `COc1ccc(-c2cc(=S)ss2)cc1` [AOL, 5-(4-methoxyphenyl)-3H-1,2-dithiole-3-thione], in the assay with intrapulmonary arteries (AOL preincubated 30 minutes), the endothelin-induced contractions entry was “no effect on endothelin-induced contractions” and the serotonin-induced contractions result is reported as “could relax contractions induced with up to 5·10^−5 M of serotonin”. Further, the “decrease of ROS/H2O2 production measured in the absence of inhibitor” value at site IQ of complex I (AOL 5 to 80 μM, glutamate, malate, succinate, only ATR present) is listed as “approximately 80%”. In assay [1], the “PASMC proliferation in presence of 0.2% FCS and 100 μM 5HT” value is “successfully inhibited the proliferation”; the “PASMC proliferation induced by 10% FCS” value was “successfully inhibited the proliferation”.

Take `Oc1ccc(-c2cc(=S)ss2)cc1` [AOX, 5-(4-hydroxyphenyl)-3H-1,2-dithiole-3-thione]: the “response of serotonin- and endothelin-induced contractions compared with AOL” value in the assay with intrapulmonary arteries (AOX at 10 μM) is recorded as “same pattern of response”. The serotonin-induced contractions result in the assay on intrapulmonary arteries (higher concentrations of AOX (above 10 μM)) is on record as “contractions induced with 10^−4 M of serotonin could be relaxed”. Besides, the “lowest concentration showing an inhibitory effect on ROS production by site IQ” value on site IQ of complex I (AOX 2.5 to 20 μM, glutamate, malate, succinate, ATR) is 2.5 µM. In addition, the IC50 on site IQ of complex I (AOX 2.5 to 20 μM, glutamate, malate, succinate, ATR, read-out: estimated IC50 on ROS production by site IQ) was roughly 9.5 µM. Besides, at site IQ of complex I (fit of FIG. 21), the Hill coefficient is listed as 2.616±0.5706, the “Maximum (fit parameter)” value was determined as 554.045±19.73 and the “Minimum (fit parameter)” value is on record as −72.5272±68.64. The IC50 on site IQ of complex I (fit of FIG. 21, read-out: IC50 (fit parameter)) is 9.47 ± 1.02 µM.
